These results are taken from US20240425479A1, “HALO-SUBSTITUTED AMINO AZA-HETEROARYL COMPOUNDS AS INHIBITORS OF THE HAEMATOPOIETIC PROGENITOR KINASE 1 (HPK1)” (priority 2021, published 2024).

In test [1] the target is T1, Recombinant (1-346) HPK1 (h) (Homo sapiens, UniProt Q92918).
T1 construct: Recombinant (1-346) HPK1 (h) is incubated with 8 mM MOPS pH 7.0
T1 sequence (Q92918 1-346): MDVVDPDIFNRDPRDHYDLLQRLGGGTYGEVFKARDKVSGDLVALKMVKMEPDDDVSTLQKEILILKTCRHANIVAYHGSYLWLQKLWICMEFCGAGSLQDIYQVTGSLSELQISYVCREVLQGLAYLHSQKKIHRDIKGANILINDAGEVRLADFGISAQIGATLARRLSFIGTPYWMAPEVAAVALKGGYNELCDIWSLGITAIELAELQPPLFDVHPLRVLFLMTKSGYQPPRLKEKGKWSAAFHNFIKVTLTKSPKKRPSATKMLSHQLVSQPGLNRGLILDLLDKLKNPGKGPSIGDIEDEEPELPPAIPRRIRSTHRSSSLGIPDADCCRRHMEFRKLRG
The test can be described thus: HPK1 human STE kinase enzymatic radiometric assay. Format: biochemical. Particulars: read-out: HPK1 IC50 nM Range. The procedure, abridged: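 Recombinant HPK1 (1-346) incubated 40 min at RT with 0.33 mg/mL myelin basic protein and [gamma-33P]-ATP in 8 mM MOPS pH 7.0, 0.2 mM EDTA, 10 mM Mg acetate; reaction started with Mg/ATP. Stopped with 0.5% phosphoric acid, spotted on P30 filtermat, washed, scintillation counted. Compounds tested as 9-point 3-fold dilutions.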

The target of a further test is Lck (h) (Homo sapiens, UniProt P06239). The test can be described thus: Lck human STE kinase enzymatic radiometric assay. The test is classed as biochemical. Particulars: read-out: Lck IC50 nM Range. As for the experimental part: (b) Lck Human STE Kinase Enzymatic Radiometric Assay
Sequence of Lck (h) (P06239 whole entry): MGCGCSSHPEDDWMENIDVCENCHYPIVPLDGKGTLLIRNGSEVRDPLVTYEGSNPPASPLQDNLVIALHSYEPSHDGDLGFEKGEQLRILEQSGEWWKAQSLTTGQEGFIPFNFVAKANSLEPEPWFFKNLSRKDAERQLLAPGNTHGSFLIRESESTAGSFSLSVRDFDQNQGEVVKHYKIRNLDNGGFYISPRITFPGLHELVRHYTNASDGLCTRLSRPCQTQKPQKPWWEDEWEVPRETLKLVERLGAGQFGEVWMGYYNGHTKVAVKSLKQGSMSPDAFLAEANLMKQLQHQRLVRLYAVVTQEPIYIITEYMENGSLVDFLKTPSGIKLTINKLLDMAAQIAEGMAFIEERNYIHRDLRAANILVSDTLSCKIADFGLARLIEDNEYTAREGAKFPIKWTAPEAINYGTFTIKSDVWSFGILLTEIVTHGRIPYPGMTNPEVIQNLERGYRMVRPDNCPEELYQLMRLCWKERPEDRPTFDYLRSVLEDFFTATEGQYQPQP
Lck (h) is incubated with 50 mM Tris pH 7.5, 0.1 mM EGTA, 0.1 mM Na3VO4, 250 uM KVEKIGEGTYGVVYK (Cdc2 peptide), 10 mM MgAcetate and [gamma-33P]-ATP (specific activity and concentration as required). The reaction is initiated by the addition of the Mg/ATP mix. After incubation for 40 minutes at room temperature, the reaction is stopped by the addition of phosphoric acid to a concentration of 0.5%, 10 μL of the reaction is then spotted onto a P30 filtermat and washed four times for 4 minutes in 0.425% phosphoric acid and once in methanol prior to drying and scintillation counting. For more details on the kinase assay procedures see: Gao, Y. et. al.; Biochem J., 451 (2): 313-328, 2013.

Where a name gives a salt, the structure may show the parent alone.

With `Nc1nc(F)c(-c2ccc(N3CCOCC3)cc2)nc1-c1cc(F)c2c(=O)[nH]ccc2c1` [Example I-36, 6-(3-amino-5-fluoro-6-(4-morpholinophenyl)pyrazin-2-yl)-8-fluoroisoquinolin-1(2H)-one], the IC50 is 0.1 to 10 nM in test [1] and greater than 1000 nM at Lck (h).

In the case of `CC(C1CC1)N1CCN(c2ccc(-c3nc(-c4cc(F)c5c(c4)CCNC5=O)c(N)nc3F)cc2)CC1` (single isomer, unassigned) [Example I-30, 6-(3-amino-6-(4-(4-(1-cyclopropylethyl)piperazin-1-yl)phenyl)-5-fluoropyrazin-2-yl)-8-fluoro-3,4-dihydroisoquinolin-1(2H)-one], the IC50 in test [1] was 0.1 to 10 nM; at Lck (h), 101 to 1000 nM.

`CN(C)Cc1cc(-c2nc(-c3ccc4c(c3)C(F)(F)CNC4=O)c(N)nc2F)ccc1C1CCOCC1` [Example I-223, 6-(3-amino-6-(3-((dimethylamino)methyl)-4-(tetrahydro-2H-pyran-4-yl)phenyl)-5-fluoropyrazin-2-yl)-4,4-difluoro-3,4-dihydroisoquinolin-1(2H)-one]: the figures for the IC50 (in test [1]; on Lck (h)) were 0.1 to 10 nM and greater than 1000 nM, respectively.

With `Nc1nc(F)c(-c2ccc(N3CCN(CC4CC4)CC3)cc2)nc1-c1ccc2c(=O)[nH]ccc2c1` [Example I-23, 6-(3-amino-6-(4-(4-(cyclopropylmethyl)piperazin-1-yl)phenyl)-5-fluoropyrazin-2-yl)isoquinolin-1(2H)-one], the results for the IC50 (in test [1]; on Lck (h)) were 0.1 to 10 nM and greater than 1000 nM, respectively.

With `CCN1CCN(c2ccc(-c3nc(-c4ccc5c(=O)[nH]ccc5c4)c(N)nc3F)cc2)CC1` [Example I-32, 6-(3-amino-6-(4-(4-ethylpiperazin-1-yl)phenyl)-5-fluoropyrazin-2-yl)isoquinolin-1(2H)-one], the IC50 in test [1] is 0.1 to 10 nM; at Lck (h) it was greater than 1000 nM.

Regarding `CC(C)N1CCN(c2ccc(-c3nc(-c4ccc5c(c4)CCNC5=O)c(N)nc3F)cc2)CC1` [Example I-1, 6-(3-amino-5-fluoro-6-(4-(4-isopropylpiperazin-1-yl)phenyl)pyrazin-2-yl)-3,4-dihydroisoquinolin-1(2H)-one], the results for the IC50 (in test [1]; at Lck (h)) were 0.1 to 10 nM and greater than 1000 nM, respectively.

Regarding `Cc1[nH]c(=O)c2c(F)cc(-c3nc(-c4ccc(C5CCOCC5)c(CN(C)C)c4)c(F)nc3N)cc2c1F` [Example I-117, 6-(3-amino-6-(3-((dimethylamino)methyl)-4-(tetrahydro-2H-pyran-4-yl)phenyl)-5-fluoropyrazin-2-yl)-4,8-difluoro-3-methylisoquinolin-1(2H)-one], the figures for the IC50 (in test [1]; at Lck (h)) were 0.1 to 10 nM and greater than 1000 nM, respectively.

`CC(C)N1CCN(c2ccc(-c3nc(-c4ccc5c(=O)[nH]cnc5c4)c(N)nc3F)cc2)CC1` [Example I-37, 7-(3-amino-5-fluoro-6-(4-(4-isopropylpiperazin-1-yl)phenyl)pyrazin-2-yl)quinazolin-4(3H)-one]: the IC50 is 0.1 to 10 nM in test [1] and greater than 1000 nM at Lck (h).

For `Nc1nc(F)c(-c2ccc(N3CCOCC3)c(CN3CCCC3)c2)nc1-c1ccc2c(c1)CCNC2=O` [Example I-113, 6-(3-amino-5-fluoro-6-(4-morpholino-3-(pyrrolidin-1-ylmethyl)phenyl)pyrazin-2-yl)-3,4-dihydroisoquinolin-1(2H)-one], the figures for the IC50 (in test [1]; on Lck (h)) were 0.1 to 10 nM and greater than 1000 nM, respectively.

Take `CN(C)Cc1cc(-c2nc(-c3ccc4c(c3)CCNC4=O)c(N)nc2F)ccc1N1CCOCC1` [Example I-64, 6-(3-amino-6-(3-((dimethylamino)methyl)-4-morpholinophenyl)-5-fluoropyrazin-2-yl)-3,4-dihydroisoquinolin-1(2H)-one]: the IC50 in test [1] is 0.1 to 10 nM; at Lck (h), greater than 1000 nM.

Take `Cc1nc2cc(-c3nc(-c4ccc(C5CCOCC5)c(CN(C)C)c4)c(F)nc3N)ccc2c(=O)[nH]1` [Example I-92, 7-(3-amino-6-(3-((dimethylamino)methyl)-4-(tetrahydro-2H-pyran-4-yl)phenyl)-5-fluoropyrazin-2-yl)-2-methylquinazolin-4(3H)-one]: the IC50 was 0.1 to 10 nM in test [1] and greater than 1000 nM on Lck (h).

Consider `Nc1nc(F)c(-c2ccc(N3CCOCC3)c(CN3CCC3)c2)nc1-c1cc(F)c2c(c1)CCNC2=O` [Example I-146, 6-(3-amino-6-(3-(azetidin-1-ylmethyl)-4-morpholinophenyl)-5-fluoropyrazin-2-yl)-8-fluoro-3,4-dihydroisoquinolin-1(2H)-one], for which the results for the IC50 (in test [1]; at Lck (h)) were 0.1 to 10 nM and greater than 1000 nM, respectively.

Take `CNCC1Cc2cc(-c3nc(-c4ccc(N5CCOCC5)cc4)c(F)nc3N)ccc2C(=O)N1` (centres unmarked) [Example I-12, 6-(3-amino-5-fluoro-6-(4-morpholinophenyl)pyrazin-2-yl)-3-((methylamino)methyl)-3,4-dihydroisoquinolin-1(2H)-one]: the figures for the IC50 (in test [1]; on Lck (h)) were 0.1 to 10 nM and greater than 1000 nM, respectively.

In the case of `CC(C)N1CCN(c2ccc(-c3nc(-c4ccc5c(=O)[nH]cc(F)c5c4)c(N)nc3F)cc2)CC1` [Example I-66, 6-(3-amino-5-fluoro-6-(4-(4-isopropylpiperazin-1-yl)phenyl)pyrazin-2-yl)-4-fluoroisoquinolin-1(2H)-one], the IC50 in test [1] was 0.1 to 10 nM; at Lck (h), greater than 1000 nM.

For the molecule `CC(C)N1C[C@@H]2C[C@]2(c2ccc(-c3nc(-c4cc5c(cc4F)C(=O)NCC5)c(N)nc3F)cc2)C1` [Example I-6, 6-(3-amino-5-fluoro-6-(4-((1S,5R)-3-isopropyl-3-azabicyclo[3.1.0]hexan-1-yl)phenyl)pyrazin-2-yl)-7-fluoro-3,4-dihydroisoquinolin-1(2H)-one], the IC50 is 0.1 to 10 nM in test [1] and 101 to 1000 nM at Lck (h).

Regarding `CCN(C)Cc1cc(-c2nc(-c3cc(F)c4c(c3)CCNC4=O)c(N)nc2F)ccc1C1CCOCC1` [Example I-165, 6-(3-amino-6-(3-((ethyl(methyl)amino)methyl)-4-(tetrahydro-2H-pyran-4-yl)phenyl)-5-fluoropyrazin-2-yl)-8-fluoro-3,4-dihydroisoquinolin-1(2H)-one], the IC50 was 0.1 to 10 nM in test [1] and greater than 1000 nM at Lck (h).

For the molecule `Cc1c[nH]c(=O)c2ccc(-c3nc(-c4ccc(N5CCOCC5)c(CN(C)C)c4)c(F)nc3N)cc12` [Example I-96, 6-(3-amino-6-(3-((dimethylamino)methyl)-4-morpholinophenyl)-5-fluoropyrazin-2-yl)-4-methylisoquinolin-1(2H)-one], the IC50 in test [1] was 0.1 to 10 nM; on Lck (h), greater than 1000 nM.

As to `C[C@@H]1CN(c2ccc(-c3nc(-c4cc5c(cc4F)C(=O)NCC5)c(N)nc3F)cc2CN(C)C)CCO1` [Example I-173, (R)-6-(3-amino-6-(3-((dimethylamino)methyl)-4-(2-methylmorpholino)phenyl)-5-fluoropyrazin-2-yl)-7-fluoro-3,4-dihydroisoquinolin-1(2H)-one], the IC50 was 0.1 to 10 nM in test [1] and 101 to 1000 nM at Lck (h).

In the case of `Nc1nc(F)c(-c2ccc(N3CCN(C4CCC4)CC3)cc2)nc1-c1cc2c(cc1F)C(=O)NCC2` [Example I-48, 6-(3-amino-6-(4-(4-cyclobutylpiperazin-1-yl)phenyl)-5-fluoropyrazin-2-yl)-7-fluoro-3,4-dihydroisoquinolin-1(2H)-one], the values for the IC50 (in test [1]; at Lck (h)) were 0.1 to 10 nM and greater than 1000 nM, respectively.

As to `CN(C)Cc1cc(-c2nc(-c3ccc4c(=O)[nH]cc(Cl)c4c3)c(N)nc2F)ccc1C1CCOCC1` [Example I-154, 6-(3-amino-6-(3-((dimethylamino)methyl)-4-(tetrahydro-2H-pyran-4-yl)phenyl)-5-fluoropyrazin-2-yl)-4-chloroisoquinolin-1(2H)-one], the IC50 in test [1] is 0.1 to 10 nM; on Lck (h), greater than 1000 nM.

As to `C[C@@H]1CN(c2ccc(-c3nc(-c4ccc5c(c4)CCNC5=O)c(N)nc3F)cc2CN(C)C)CCO1` [Example I-172, (R)-6-(3-amino-6-(3-((dimethylamino)methyl)-4-(2-methylmorpholino)phenyl)-5-fluoropyrazin-2-yl)-3,4-dihydroisoquinolin-1(2H)-one], the IC50 in test [1] is 0.1 to 10 nM; at Lck (h), greater than 1000 nM.

As for `CC(C)N1C[C@H]2C[C@@]2(c2ccc(-c3nc(-c4cc(F)c5c(c4)CCNC5=O)c(N)nc3F)cc2)C1` [Example I-15, 6-(3-amino-5-fluoro-6-(4-((1R,5S)-3-isopropyl-3-azabicyclo[3.1.0]hexan-1-yl)phenyl)pyrazin-2-yl)-8-fluoro-3,4-dihydroisoquinolin-1(2H)-one formate], the IC50 is 0.1 to 10 nM in test [1] and greater than 1000 nM at Lck (h).
